Measurements from patent publication US20240376097A1, “BCL-2 Inhibitor” (BeiGene Ltd., priority 2020, published 2024).

Key:
[1] = molecular target: Recombinant human Bcl-2 protein (Homo sapiens (Human), UniProt P10415); test: Bcl-2 TR-FRET Assay; type: binding; details: Bcl-2 wild type, TR-FRET; read-out: Biochemical assay (IC50, nM) Bcl-2 WT
Procedure, shortened: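 0.05 nM recombinant Bcl-2 preincubated 0.5 h at room temperature with 10-point compound dilutions (top final 1, 0.1, 0.02 or 0.01 uM) in pH 7.5 phosphate buffer. FITC-Bak peptide (0.5 nM) and anti-6His Tb cryptate then added for 1 h. TR-FRET read; IC50 from four-parameter logistic fit.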

[2] = molecular target: recombinant human Bcl-2-G101V protein (Homo sapiens (Human), UniProt P10415, G101V); test: Bcl-2-G101V TR-FRET Assay; type: binding; details: Bcl-2 G101V mutant, TR-FRET; read-out: Biochemical assay (IC50, nM) Bcl-2 G101V
Procedure, shortened: (§1)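 TR-FRET read at excitation 337 nm with emission at 490 nm and 520 nm. Inhibition of Bcl-2-G101V binding to its ligand across increasing compound concentrations was calculated from the 490/520 nm fluorescence ratio, and IC50 values came from four-parameter logistic fits.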

[3] = tested on: recombinant human Bcl-2-G101V protein; test: Bcl-2-G101V TR-FRET Assay; type: binding; details: ratio of biochemical IC50 Bcl-2 G101V / Bcl-2 WT
Procedure, shortened: as §1

[4] = tested on: RS4;11 (BCL-2 dependent acute lymphoblastic leukemia cell line); test: RS4;11 Cell Proliferation Assay; type: cell-based; details: Homo sapiens, RS4-11, RS4;11 cells, read-out: Cellular proliferation assay (IC50, nM) RS4
Procedure, shortened: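 RS4;11 cells, 50,000 per well in RPMI-1640 with 10% FBS, treated 48 h at 37 °C with a 10-point dilution series topping at 1 μM. Viability read by CellTiter-Glo ATP luminescence; mean IC50 reported.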

[5] = tested on: BCL-2 G101V knock-in cell line H96 (derive from RS4;11); test: Bcl 2-G101V Knock-In RS4;11 Cell Proliferation Assay; type: cell-based; details: Homo sapiens, RS4;11 Bcl-2 G101V knock-in clone H96, 48 hrs, CellTiter-GLO, read-out: Cellular proliferation assay (IC50, nM) RS4
Procedure, shortened: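 H96, a CRISPR-generated RS4;11 clone carrying BCL2-G101V knock-in (WES/RNA-seq validated), seeded 50,000 per well and exposed 48 h at 37 °C to 10-point dilutions topping at 1 or 10 μM. Viability by CellTiter-Glo luminescence; mean IC50.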

SMILES	IC50 [1] [nM]	IC50 [2] [nM]	Ratio of Bcl-2 G101V/WT [3]	IC50 [4] [nM]	IC50 [5] [nM]
COc1ccc(CN2CCN(C3CC4(CCN(c5ccc(C(=O)NS(=O)(=O)c6ccc(NC[C@H]7CC[C@](C)(O)CC7)c([N+](=O)[O-])c6)c(Oc6cnc7[nH]ccc7c6)c5)CC4)C3)C(c3ccccc3CN3CCOCC3)C2)cc1 (stereo partly shown) [Example 37, 2-((1H-pyrrolo[2,3-b]pyridin-5-yl)oxy)-N-((4-((((1r,4r)-4-hydroxy-4-methylcyclohexyl)methyl)amino)-3-nitrophenyl)sulfonyl)-4-(2-(4-(4-methoxybenzyl)-2-(2-(morpholinomethyl)phenyl)piperazin-1-yl)-7-azaspiro[3.5]nonan-7-yl)benzamide]	0.42	12	28.6	77.4	289
CC(C)c1ccccc1C1CN(S(C)(=O)=O)CCN1C1CC2(CCN(c3ccc(C(=O)NS(=O)(=O)c4ccc(NC[C@H]5CC[C@](C)(O)CC5)c([N+](=O)[O-])c4)c(Oc4cnc5[nH]ccc5c4)c3)CC2)C1 (stereo partly shown) [Example 66, 2-((1H-pyrrolo[2,3-b]pyridin-5-yl)oxy)-N-((4-((((1r,4r)-4-hydroxy-4-methylcyclohexyl)methyl)amino)-3-nitrophenyl)sulfonyl)-4-(2-(2-(2-isopropylphenyl)-4-(methylsulfonyl)piperazin-1-yl)-7-azaspiro[3.5]nonan-7-yl) benzamide]	0.034	1.6	47.1	0.6	6.61
CCc1ccc(CN2CCN(C3CC4(CCN(c5ccc(C(=O)NS(=O)(=O)c6ccc(NC[C@H]7CC[C@](C)(O)CC7)c([N+](=O)[O-])c6)c(Oc6cnc7[nH]cc(F)c7c6)c5)CC4)C3)[C@H](c3ccccc3C(C)C)C2)cc1OC [Example 266, 4-(2-((R)-4-(4-ethyl-3-methoxybenzyl)-2-(2-isopropylphenyl)piperazin-1-yl)-7-azaspiro[3.5]nonan-7-yl)-2-((3-fluoro-1H-pyrrolo[2,3-b]pyridin-5-yl)oxy)-N-((4-((((1r,4r)-4-hydroxy-4-methylcyclohexyl)methyl)amino)-3-nitrophenyl)sulfonyl) benzamide]	1.4	4.1	3	0.22	0.66
CC(C)c1ccccc1C1CN(S(=O)(=O)c2ccccc2)CCN1C1CC2(CCN(c3ccc(C(=O)NS(=O)(=O)c4ccc(NC[C@H]5CC[C@](C)(O)CC5)c([N+](=O)[O-])c4)c(Oc4cnc5[nH]ccc5c4)c3)CC2)C1 (stereo partly shown) [Example 62, 2-((1H-pyrrolo[2,3-b]pyridin-5-yl)oxy)-N-((4-((((1r,4r)-4-hydroxy-4-methylcyclohexyl)methyl)amino)-3-nitrophenyl)sulfonyl)-4-(2-(2-(2-isopropylphenyl)-1-(phenylsulfonyl)piperazin-1-yl)-7-azaspiro[3.5]nonan-7-yl) benzamide]	0.33	13	39.4	2.4	28.4
COc1cc(CN2CCN(C3CC4(C3)CN(c3ccc(C(=O)NS(=O)(=O)c5ccc(NC[C@H]6CC[C@](C)(O)CC6)c([N+](=O)[O-])c5)c(Oc5cnc6[nH]cc(F)c6c5)c3)C4)[C@H](c3ccccc3C(C)C)C2)ccc1Cl [Example 325, 4-(6-((R)-4-(4-chloro-3-methoxybenzyl)-2-(2-isopropylphenyl)piperazin-1-yl)-2-azaspiro[3.3]heptan-2-yl)-2-((3-fluoro-1H-pyrrolo[2,3-b]pyridin-5-yl)oxy)-N-((4-((((1r,4r)-4-hydroxy-4-methylcyclohexyl)methyl)amino)-3-nitrophenyl)sulfonyl) benzamide]	0.49	0.97	2	0.21	0.53
COc1cc(CN2CCN(C3CC4(CCN(c5ccc(C(=O)NS(=O)(=O)c6ccc(NC[C@H]7CC[C@](C)(O)CC7)c([N+](=O)[O-])c6)c(Oc6cnc7[nH]ccc7c6)c5)CC4)C3)[C@H](c3ccccc3C(C)C)C2)ccc1C(C)C [Example 263, 2-((1H-pyrrolo[2,3-b]pyridin-5-yl)oxy)-N-((4-((((1r,4r)-4-hydroxy-4-methylcyclohexyl)methyl)amino)-3-nitrophenyl)sulfonyl)-4-(2-((R)-4-(4-isopropyl-3-methoxybenzyl)-2-(2-isopropylphenyl)piperazin-1-yl)-7-azaspiro[3.5]nonan-7-yl) benzamide]	1.3	4.9	3.9	0.18	1.01
CC(C)c1ccccc1[C@@H]1CN(Cc2ccc3c(c2)OCC3(C)C)CCN1C1CC2(C1)CN(c1ccc(C(=O)NS(=O)(=O)c3ccc(NC[C@H]4CC[C@](C)(O)CC4)c([N+](=O)[O-])c3)c(Oc3cnc4[nH]cc(F)c4c3)c1)C2 [Example 311, 4-(6-((R)-4-((3,3-dimethyl-2,3-dihydrobenzofuran-6-yl)methyl)-2-(2-isopropylphenyl)piperazin-1-yl)-2-azaspiro[3.3]heptan-2-yl)-2-((3-fluoro-1H-pyrrolo[2,3-b]pyridin-5-yl)oxy)-N-((4-((((1r,4r)-4-hydroxy-4-methylcyclohexyl)methyl)amino)-3-nitrophenyl)sulfonyl)benzamide]	0.43	1.5	3.4	0.42	2.3
CC(C)c1ccccc1C1CN(C2CCCCC2)CCN1C1CC2(CCN(c3ccc(C(=O)NS(=O)(=O)c4ccc(NC[C@H]5CC[C@](C)(O)CC5)c([N+](=O)[O-])c4)c(Oc4cnc5[nH]ccc5c4)c3)CC2)C1 (stereo partly shown) [Example 9]	0.034	0.52	15.3	0.51	4.37
CCN1CCN(C2CC3(CCN(c4ccc(C(=O)NS(=O)(=O)c5ccc(NC[C@H]6CC[C@](C)(O)CC6)c([N+](=O)[O-])c5)c(Oc5cnc6[nH]ccc6c5)c4)CC3)C2)C(c2ccccc2C(C)C)C1 (stereo partly shown) [Example 2]	0.011	0.25	22.7	0.53	3.94
COc1cnc(CN2CCN(C3CC4(CCN(c5ccc(C(=O)NS(=O)(=O)c6ccc(NC[C@H]7CC[C@](C)(O)CC7)c([N+](=O)[O-])c6)c(Oc6cnc7[nH]ccc7c6)c5)CC4)C3)C(c3ccccc3C(C)C)C2)cn1 (stereo partly shown) [Example 154, 2-((1H-pyrrolo[2,3-b]pyridin-5-yl)oxy)-N-((4-((((1r,4r)-4-hydroxy-4-methylcyclohexyl)methyl)amino)-3-nitrophenyl)sulfonyl)-4-(2-(2-(2-isopropylphenyl)-4-((5-methoxypyrazin-2-yl)methyl)piperazin-1-yl)-7-azaspiro[3.5]nonan-7-yl)benzamide]	0.05	0.3	6	0.38	2.22
COc1cc(CN2CCN(C3CC4(CCN(c5ccc(C(=O)NS(=O)(=O)c6ccc(NC[C@H]7CC[C@](C)(O)CC7)c([N+](=O)[O-])c6)c(Oc6cnc7[nH]ccc7c6)c5)CC4)C3)C(c3ccccc3C(C)C)C2)ccc1Cl (stereo partly shown) [Example 126, 2-((1H-pyrrolo[2,3-b]pyridin-5-yl)oxy)-4-(2-(4-(4-chloro-3-methoxybenzyl)-2-(2-isopropylphenyl)piperazin-1-yl)-7-azaspiro[3.5]nonan-7-yl)-N-((4-((((1r,4r)-4-hydroxy-4-methylcyclohexyl)methyl)amino)-3-nitrophenyl)sulfonyl)benzamide]	0.42	1.9	4.5	0.18	3.6
